Measured values: patent US11319318B2, “Pyridinones and isoquinolinones as inhibitors of the bromodomain BRD9” (Boehringer Ingelheim International GmbH, priority 2015, dated 2022)

Target: T1, bromodomain of BRD9 (GST-BRD9 aa 130-259) / H3 K9/14/18/23Ac(1-28) peptide (Homo sapiens, UniProt Q9H8M2)
T1 construct: The protein corresponding to amino acids 130-259 that contains the bromodomain of BRD9; made in house; host or cells: E. coli
T1 sequence (Q9H8M2 130-259): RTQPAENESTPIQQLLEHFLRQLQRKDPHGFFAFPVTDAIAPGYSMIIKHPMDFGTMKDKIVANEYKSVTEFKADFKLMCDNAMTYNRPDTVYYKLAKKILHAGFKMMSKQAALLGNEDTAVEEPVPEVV
Experiment: BRD9-H3 tetra-acetylated Peptide Inhibition AlphaScreen
Format: binding
Procedure: Biological Methods BRD9-H3 tetra-acetylated Peptide Inhibition AlphaScreen
This assay is used to identify compounds which inhibit the interaction of the bromodomain of BRD9 with a tetra-acetylated peptide based on the sequence of histone H3 (H3 K9/14/18/23Ac (1-28)).
Compounds are dispensed onto assay plates using an Access Labcyte Workstation with the Labcyte Echo 550 from a DMSO solution. For the chosen highest concentration of 100 μM, 150 nl of compound solution are transferred from a 10 mM DMSO solution. […] DMSO is added such that every well has a total of 150 nl of DMSO.
Each plate contains negative controls where biotinylated H3 K9/14/18/23Ac(1-28) peptide and GST-BRD9 are left out and replaced by assay buffer. Negative control values are entered as low basis value when using the software GraphPad Prism for calculations.

Row | Structure (SMILES) | IC50 [nM]
1 | COc1cc(-c2cn(C)c(=O)c3ccccc23)cc(OC)c1CN1CC(O)C1 [II-1, 4-[4-(3-Hydroxy-azetidin-1-ylmethyl)-3,5-dimethoxy-phenyl]-2-methyl-2H-isoquinolin-1-one] | 8
2 | Cc1cc(-c2cn(C)c(=O)c3ccccc23)ccc1C(=O)N(C)C [II-47] | 1190
3 | COc1cc(-c2cc(C)c(=O)n(C)c2C)ccc1CN1CC(OC)C1 [Compound I-134] | 394
4 | Cc1cc(-c2cc(C)c(=O)n(C)c2)c(C)cc1CN1CCNCC1 [Compound I-186, 5-(2,5-Dimethyl-4-piperazin-1-ylmethyl-phenyl)-1,3-dimethyl-1H-pyridin-2-one] | 967
5 | COc1cc(-c2cc(C)c(=O)n(C)c2)ccc1CN1CC(O)C1 [Compound I-47, 5-[4-(3-Hydroxy-azetidin-1-ylmethyl)-3-methoxy-phenyl]-1,3-dimethyl-1H-pyridin-2-one] | 52
6 | Cc1c(-c2ccc3c(c2)CNC3)cn(C)c(=O)c1C [Compound I-106] | 103
7 | COc1cc(-c2cn(C)c(=O)c3ccncc23)c(OC)cc1CN(C)C [II-24] | 609
8 | COc1cc(-c2cc(C)c(=O)n(C)c2C)ccc1CN1C[C@H]2C[C@@H]1CN2C [Compound I-128] | 222
9 | COc1cc(-c2cc(C)c(=O)n(C)c2)ccc1CN [Compound I-96] | 1250
10 | Cc1cc(-c2cc(C)c(=O)n(C)c2)ccc1S(=O)(=O)N1CC(O)C1 [Compound I-75] | 393
11 | CCOc1cc(-c2cc(C)c(=O)n(C)c2)ccc1CN1CC[N+](C)(CC)CC1 [Compound I-81] | 502
12 | Cc1cc(-c2ccc(S(=O)(=O)NCCN(C)C)c(OC(F)(F)F)c2)cn(C)c1=O [Compound I-7] | 326
13 | COc1cc(-c2cc(I)c(=O)n(C)c2)ccc1C(=O)N1CCNCC1 [Compound I-164, 3-Iodo-5-[3-methoxy-4-(piperazine-1-carbonyl)-phenyl]-1-methyl-1H-pyridin-2-one] | 64
14 | Cn1cc(-c2ccc(C(N)=O)cc2)c2ccncc2c1=O [II-9] | 1400
15 | COc1cc(-c2cc(C)c(=O)n(C)c2C)ccc1CN1C[C@@H]2CC1CN2 [Compound I-127] | 198
16 | Cc1cc(-c2cccc(CN(C)C)c2)cn(C)c1=O [Compound I-17] | 2540
17 | COc1cc(-c2cn(C)c(=O)c3[nH]ccc23)ccc1CN1C[C@@H]2CC1CN2C [III-4] | 62
18 | COc1cc(-c2cn(C)c(=O)c(C)c2C)ccc1C1(N2CCN(C)CC2)CC1 [Compound I-111] | 226

Row | Structure (SMILES) | IC50 [nM]
19 | COc1cc(-c2cn(C)c(=O)c3[nH]ccc23)ccc1CN1C[C@@H]2CC1CN2 [III-3] | 46
20 | COc1cc(-c2cc(C)c(=O)n(C)c2)ccc1CN1CCN(C)C(C)C1 (centres unmarked) [Compound I-86] | 777
21 | COc1cc(S(=O)(=O)N(C)CCN(C)C)c(OC)cc1-c1cn(C)c(=O)c(C)c1C [Compound I-110] | 197
22 | COc1cc(-c2cc(C)c(=O)n(C)c2)ccc1S(=O)(=O)N1CC(O)C1 [Compound I-74] | 371
23 | Cc1cc(-c2ccc3c(c2)CCNC3)cn(C)c1=O [Compound I-85] | 708
24 | COc1cc(-c2cc(C)c(=O)n(C)c2C)ccc1CN1CC(O)C1 [Compound I-119] | 55
25 | COc1cc(-c2cc(C)c(=O)n(C)c2)cc(OC)c1CN(C)C1CNC1 [Compound I-207, 5-{4-[(Azetidin-3-yl-methyl-amino)-methyl]-3,5-dimethoxy-phenyl}-1,3-dimethyl-1H-pyridin-2-one] | 93
26 | Cc1c(-c2ccc(CN)cc2)cn(C)c(=O)c1C [Compound I-137, 5-(4-Aminomethyl-phenyl)-1,3,4-trimethyl-1H-pyridin-2-one] | 834
27 | COc1cc(-c2cc(I)c(=O)n(C)c2C)cc(OC)c1CN(C)C [Compound I-168] | 40
28 | COc1cc(-c2cn(C)c(=O)c3cnccc23)cc(OC)c1CNC1CNC1 [II-32] | 24
29 | Cc1cc(C(=O)N2CCNCC2)ccc1-c1cc(C)c(=O)n(C)c1 [Compound I-163] | 550
30 | COc1cc(S(=O)(=O)N2CC(O)C2)c(OC)cc1-c1cc(C)c(=O)n(C)c1 [Compound I-56] | 131
31 | Cc1cc(-c2ccc(C(=O)C3CCNCC3)cc2)cn(C)c1=O [Compound I-73] | 361
32 | COc1cc(-c2cn(C)c(=O)c(C)c2C)c(OC)cc1CN1CC(O)C1 [Compound I-104] | 39
33 | COc1cc(-c2cc(C)c(=O)n(C)c2C)ccc1COC1CNC1 [Compound I-153] | 29
34 | Cc1cc(-c2cn(C)c(=O)c3[nH]ccc23)ccc1C(=O)N1CCN(C)CC1 [III-8] | 340
35 | Cc1cc(-c2ccc3c(c2)CN(C)C3)c(C)n(C)c1=O [Compound I-212] | 750

Target: T2, bromodomain of BRD9 (GST fusion) / acetylated histone H4 peptide (BET Bromodomain Ligand) (Homo sapiens, UniProt Q9H8M2)
T2 construct: A GST fusion protein of the bromodomain of BRD9; purchased BPS Biosciences #32519
T2 sequence (Q9H8M2 136-240 limits assumed): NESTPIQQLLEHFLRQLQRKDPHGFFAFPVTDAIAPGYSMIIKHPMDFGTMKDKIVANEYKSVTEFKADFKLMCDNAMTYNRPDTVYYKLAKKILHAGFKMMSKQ
Experiment: BRD9-H4 Tetraacetylated Peptide Inhibition AlphaScreen
Format: binding
Source text: BRD9-H4 Tetraacetylated Peptide Inhibition AlphaScreen
This assay is used to identify compounds which inhibit the interaction of the bromodomain of BRD9 with a tetra-acetylated peptide based on the sequence of histone H4 (termed the “BET Bromodomain ligand” as purchased from BPS Biosciences).
A GST fusion protein of the bromodomain of BRD9 and an acetylated histone H4 peptide (the “BET Bromodomain Ligand” are purchased as part of the BRD9 Inhibitor Screening Assay Kit at BPS Biosciences (Cat. Number: #32519)
AlphaScreen Beads (Perkin Elmer):
AlphaLISA Glutathione Acceptor Beads
AlphaScreen Streptavidin Donor Beads
Assay plates: Proxiplate-384 PLUS, white (PerkinElmer)
The assay is done in a darkened room below 100 Lux.
Compounds are dispensed onto assay plates using an Access Labcyte Workstation with the Labcyte Echo 550 from a DMSO solution. For the chosen highest concentration of 100 μM, 150 nl of compound solution are transferred from a 10 mM DMSO solution. A series of 11 concentrations is transferred for each compound at which each concentration is five-fold lower than the previous one (i.e. 100 μM, 20 μM, 4 μM, 0.8 μM, etc). DMSO is added such that every well has a total of 150 nl of DMSO.
15 μl of the resulting mix are added to the assay plates that contain 150 nl of the compounds. After 60 min at room temperature the signal is measured in a PerkinElmer Envision HTS Multilabel Reader using the AlphaScreen specifications from PerkinElmer.
Each plate contains negative controls where biotinylated BET Bromodomain Ligand and GST-BRD9 are left out and replaced by assay buffer. Negative control values are entered as low basis value when using the software GraphPad Prism for calculations.

Row | Structure (SMILES) | IC50 [nM]
36 | CCn1cc(-c2ccc(C)c(NS(C)(=O)=O)c2)c2cc[nH]c2c1=O [III-1, N-[5-(6-Ethyl-7-oxo-6,7-dihydro-1H-pyrrolo[2,3-c]pyridin-4-yl)-2-methyl-phenyl]-methanesulfonamide] | 645
37 | Cc1ccc(-c2cc(C)c(=O)n(C3CC3)c2)cc1NS(C)(=O)=O [Compound I-28] | 5120
38 | Cc1cc(-c2ccc(C(=O)N3CCNCC3)c(CS(C)(=O)=O)c2)cn(C)c1=O [Compound I-170] | 29
39 | Cc1ccc(-c2cn(C)c(=O)c(C)c2C)cc1N [Compound I-19] | 333
40 | Cc1cc(-c2ccc(C(=O)c3c(Cl)ncnc3Cl)cc2)cn(C)c1=O [Compound I-100] | 50
41 | Cc1cc(-c2ccc(C(=O)N3CCN(C)CC3)c3ccccc23)cn(C)c1=O [Compound I-175] | 135
42 | Cc1ccc(-c2cn(C)c(=O)c(C)n2)cc1NS(C)(=O)=O [Compound I-25] | 6580
43 | CN1CCN(C(=O)c2ccc(-c3cn(C)c(=O)c4ccccc34)cc2)CC1 [II-4] | 86
44 | COc1cc(C(=O)N2CCNCC2)ccc1-c1cc(C)c(=O)n(C)c1 [Compound I-161] | 32
45 | COc1cc(-c2cc(C)c(=O)n(C)c2)ccc1C(=O)N1CCN(C)CC1 [Compound I-89, 5-[3-methoxy-4-(4-methyl-piperazine-1-carbonyl)-phenyl]-1,3-dimethyl-1H-pyridin-2-one] | 70
46 | Cc1cc(-c2ccc(CN3CCNCC3)cc2)cn(C)c1=O [Compound I-79] | 60
47 | Cc1cc(-c2ccc(C(=O)NC3CCN(C)CC3)cc2)cn(C)c1=O [Compound I-30, 4-(1,5-Dimethyl-6-oxo-1,6-dihydro-pyridin-3-yl)-N-(1-methyl-piperidin-4-yl)-benzamide] | 444
48 | Cc1cc(-c2ccc(CN3CCOCC3)cc2)cn(C)c1=O [Compound I-14] | 109
49 | Cc1cc(-c2ccc(C(=O)N3CCN(C)CC3)c(Cl)c2)cn(C)c1=O [Compound I-176] | 204
50 | Cc1cc(-c2cc(C)c(=O)n(C)c2)ccc1CN(C)C [Compound I-35] | 47
51 | Cc1cc(-c2cc(C)c(=O)n(C)c2)ccc1C(=O)N1CCN(C)CC1 [Compound I-174] | 106
52 | Cc1cc(-c2cc(C)c(=O)n(C)c2)ccc1CN1CCN(C)CC1 [Compound I-34] | 17
53 | Cc1cc(-c2ccc(C(=O)N3CC4CCC3C4)cc2)cn(C)c1=O (centres unmarked) [Compound I-38] | 256
54 | Cc1ccc(-c2cc(N)c(=O)n(C)c2)cc1NS(C)(=O)=O [Compound I-29] | 4220
55 | CNCc1ccc(-c2cc(C)c(=O)n(C)c2)cc1OC [Compound I-192] | 33
56 | Cc1cc(-c2ccc(C(=O)c3cncnc3)cc2)cn(C)c1=O [Compound I-97] | 267
57 | CCS(=O)(=O)Cc1cc(-c2cc(C)c(=O)n(C)c2)ccc1C(=O)N1CCNCC1 [Compound I-169, 5-[3-Ethanesulfonylmethyl-4-(piperazine-1-carbonyl)-phenyl]-1,3-dimethyl-1H-pyridin-2-one] | 29
58 | CNc1ccc2c(-c3ccc(C)c(NS(C)(=O)=O)c3)cn(C)c(=O)c2c1 [II-40] | 5440
59 | CCn1cc(-c2ccc(C(=O)N(C)C)cc2)c2ccccc2c1=O [II-16] | 983
60 | Cc1ccc(-c2cn(C)c(=O)c3ccccc23)cc1NS(C)(=O)=O [II-29] | 239
61 | Cc1cc(-c2ccc(CN3CCN(C)CC3)cc2)cn(C)c1=O [Compound I-88] | 78
62 | Cc1ccc(-c2cc(C)c(=O)n(C)c2)cc1NS(C)(=O)=O [Compound I-23, N-[5-(1,5-Dimethyl-6-oxo-1,6-dihydro-pyridin-3-yl)-2-methyl-phenyl]-methanesulfonamide] | 609
